Results taken from patent US20040002441A1, “Recombination modulators and methods for producing and using the same” (priority 2000, published 2004).
Where no end group is shown, it is not given here.

Experiments:
Type in all cases: biochemical
[1] = biological target: bacteriophage λ Integrase (Int) (Escherichia phage lambda, UniProt P03700); test: Top strand cleavage of phosphorothiolate-modified attL (attLS); conditions: with Int, IHF, Xis and attR
Experimental: FIG. 18 depicts effect of peptide WKHYNY on DNA cleavage. A. Time course of resolution of excision HJs. HJs were isolated, and Int, IHF, and Xis were added in the presence or absence of peptide 52 (100 μM) and stopped at various timepoints (1, 5, 15, 30, 60, and 90 min). Absence of peptide, closed circles; presence of peptide, open squares. B. The extent of strand cleavage of attL. An attL site containing a phosphorothiolate modification at the point of top strand cleavage (attLS) was incubated with Int, IHF, and Xis, in the presence of attR and in the presence or absence of peptide WKHYNY. Absence of peptide, open squares; presence of peptides, closed diamonds.
In contrast, the peptide has little or no effect on the, rate of cleavage of the attL early intermediate under recombination conditions (FIG. 18B). We measured this by using attL substrates containing a bridging phosphorothiolate modification at the locus of top strand cleavage. This modification, developed by Burgin and Nash (1995), replaces a bridging oxygen atom in the DNA backbone with a sulfur atom. Upon cleavage, the covalent Int-DNA intermediate remains trapped because the sulfhydryl generated at the free 5′ end is a much poorer nucleophile of the phosphotyrosyl bond than the normal hydroxyl group (Burgin et al., 1995). […]
Target sequence in this assay (P0A6X7 whole entry partner, one chain of several): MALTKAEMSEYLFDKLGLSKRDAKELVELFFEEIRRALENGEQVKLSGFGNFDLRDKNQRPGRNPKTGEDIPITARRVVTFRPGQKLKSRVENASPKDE
Target sequence in this assay (P0A6Y1 whole entry partner, one chain of several): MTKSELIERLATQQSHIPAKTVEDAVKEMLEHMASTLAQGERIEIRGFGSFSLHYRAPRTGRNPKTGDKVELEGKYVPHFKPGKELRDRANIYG
Target sequence in this assay (P03699 whole entry partner, one chain of several): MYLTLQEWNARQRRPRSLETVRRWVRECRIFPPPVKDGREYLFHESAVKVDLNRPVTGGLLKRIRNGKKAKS

[2] = biological target: T1, bacteriophage λ Integrase (Int) (Escherichia phage lambda, UniProt P03700); test: Formation of covalent protein-DNA complexes (CPDs) by Int
T1 sequence (P03700 1-356): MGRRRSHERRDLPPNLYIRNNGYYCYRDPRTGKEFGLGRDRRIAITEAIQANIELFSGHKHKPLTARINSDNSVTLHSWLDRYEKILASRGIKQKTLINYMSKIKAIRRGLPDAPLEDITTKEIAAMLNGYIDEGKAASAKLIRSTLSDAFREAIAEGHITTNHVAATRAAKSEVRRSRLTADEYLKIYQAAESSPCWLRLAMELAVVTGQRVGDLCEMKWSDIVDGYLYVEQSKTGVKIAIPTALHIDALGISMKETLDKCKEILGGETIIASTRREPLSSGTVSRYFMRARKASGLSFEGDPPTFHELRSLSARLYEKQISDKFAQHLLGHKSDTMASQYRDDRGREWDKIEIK
Text: Int, like its relative tyrosine recombinases, makes transient covalent protein-DNA complexes (CPDs) during the cleavage stage of the recombination reaction. […] Since these complexes are the product of DNA cleavage by Int prior to strand exchange or ligation, we tested the effect of peptide KWWCRW on their formation. The peptide inhibited accumulation of both attL and attR CPDs by 65-75% (data not shown), supporting our model that KWWCRW blocks recombination by interfering with the cleavage step of the reaction.

[3] = biological target: Xba I; test: Restriction enzyme assay on pUC19; conditions: Xba I (TCTAGA)
Experimental: (§1) Restriction enzyme assays. Restriction digests were performed as specified and the products were separated on 0.8% agarose gels electrophoresed at 80-90V in 1× Tris borate EDTA buffer. Gels were photographed, scanned and quantitated using NIH Image v.1.55, as recommended in the instruction manual.

[4] = biological target: T2, Hind III (Haemophilus influenzae, UniProt P43870); test: Restriction enzyme assay on pUC19
T2 construct: purchased New England BioLabs
Experimental: as §1

[5] = biological target: T3, Pst I (Providencia stuartii, UniProt P00640); test: Restriction enzyme assay on pUC19
T3 construct: purchased New England BioLabs
T3 sequence (P00640 1-326): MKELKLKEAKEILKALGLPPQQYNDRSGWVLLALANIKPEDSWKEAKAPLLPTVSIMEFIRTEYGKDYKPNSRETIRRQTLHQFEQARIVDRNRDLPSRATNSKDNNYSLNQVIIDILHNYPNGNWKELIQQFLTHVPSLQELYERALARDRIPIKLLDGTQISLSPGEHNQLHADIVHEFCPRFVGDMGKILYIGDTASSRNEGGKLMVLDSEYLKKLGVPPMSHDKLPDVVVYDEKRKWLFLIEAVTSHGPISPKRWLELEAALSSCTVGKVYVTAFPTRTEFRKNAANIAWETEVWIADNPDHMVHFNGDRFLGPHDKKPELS
Experimental: as §1

[6] = biological target: Nde I; test: Restriction enzyme assay on pUC19; conditions: Nde I (CATATG)
Experimental: as §1

T2 sequence (P43870 whole entry): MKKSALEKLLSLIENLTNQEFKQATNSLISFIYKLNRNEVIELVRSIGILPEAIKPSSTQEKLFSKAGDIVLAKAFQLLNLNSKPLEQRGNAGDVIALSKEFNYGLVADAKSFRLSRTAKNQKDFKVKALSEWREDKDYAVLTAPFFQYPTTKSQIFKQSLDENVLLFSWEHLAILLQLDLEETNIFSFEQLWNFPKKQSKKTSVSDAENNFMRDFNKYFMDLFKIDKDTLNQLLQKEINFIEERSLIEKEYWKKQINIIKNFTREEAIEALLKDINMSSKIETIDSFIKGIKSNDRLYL

| Substance | effect on first strand cleavage of attLS [1] | inhibition of accumulation of attL and attR CPDs [2] | IC50 [3] [µM] | IC50 [4] [µM] | IC50 [5] [µM] | IC50 [6] [µM] |
| --- | --- | --- | --- | --- | --- | --- |
| WKHYNY-NH2 [Peptide 52, WKHYNY] | no influence on the kinetics or the amount of cleavage |  |  |  |  |  |
| KWWCRW-NH2 [Peptide 59, KWWCRW] |  | 65-75% | 37 | 48 | 44 | 37 |
